In the assay the test system is Hartley-type male guinea pigs. Nature of the assay: Guinea Pig Homogeneous Skin Passive Anaphylaxis Assay (PCA reaction). As to conditions: Cavia porcellus, 10 mg/kg oral, 48 h after sensitization, read-out: Allergic reaction inhibitory index (%). The class given is in vivo, guinea pig (Hartley-type). A digest of the protocol: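 Male Hartley guinea pigs (250~300 g) given intradermal back injections of 120-fold-diluted anti-OVA serum; 48 h later test substance dosed orally at 10 mg/kg, then challenged i.v. with OVA plus Evans Blue. Dye-spot area (long × short diameter, mm^2) measured at 30 min; inhibition % calculated against solvent control.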

Regarding `COc1cccc2oc(=O)c(OC(C)=O)c(OC/C=C(\C)CCC=C(C)C)c12` [Compound 206, 3-(acetoxy)-4-(geranyloxy)-5-(methoxy)-2H-1-benzopyran-2-one], the inhibition in vivo at 10 mg/kg is 32%. In the case of `CC(C)=CCC/C(C)=C/COc1c(OC/C=C(\C)CCC=C(C)C)c2c(O)cccc2oc1=O` [Compound 193, 3,4-(digeranyloxy)-5-hydroxy-2H-1-benzopyran-2-one] it was 30%. For `CCCCCCCCCCOc1c(OC(=O)c2ccccc2)c2c(OC(C)C)cccc2oc1=O` [Compound 218, 3-(decyloxy)-4-(benzoyloxy)-5-(isopropoxy)-2H-1-benzopyran-2-one] the value was 31%; for `CCCCCCCCCCOc1cccc2oc(=O)c(OC/C=C(\C)CCC=C(C)C)c(OC(C)=O)c12` [Compound 239, 3-(geranyloxy)-4-(acetoxy)-5-(decyloxy)-2H-1-benzopyran-2-one], 31%; for `CC(C)=CCC/C(C)=C/COc1c(O)c2ccc(OC(C)C)cc2oc1=O` [Compound 53, 3-(geranyloxy)-4-hydroxy-7-(isopropoxy)-2H-1-benzopyran-2-one], 38%.

On to `CC(C)=CCC/C(C)=C/COc1cccc2c(O)c(O)c(=O)oc12` [Compound 159, 3,4-(hydroxy)-8-(geranyloxy)-2H-1-benzopyran-2-one], for which the inhibition in vivo at 10 mg/kg is 36%.

With `CCCCCCCCCCOc1c(O)c(=O)oc2ccc(O)cc12` [Compound 268, 3,6-(dihydroxy)-4-(decyloxy)-2H-1-benzopyran-2-one], the inhibition in vivo at 10 mg/kg is 33%. In the case of `CC(C)=CCC/C(C)=C/COc1ccc2c(OC(C)C)c(OC(=O)c3ccccc3)c(=O)oc2c1` [Compound 81, 3-(benzoyloxy)-4-(isopropoxy)-7-(geranyloxy)-2H-1-benzopyran-2-one] it was 31%. In the case of `COc1c(O)c(=O)oc2ccc(O)cc12` [Compound 267, 3,6-(dihydroxy)-4-(methoxy-2H-1-benzopyran-2-one] it was 34%.

Consider `CCCCOc1cccc2oc(=O)c(OC(=O)c3ccccc3)c(O)c12` [Compound 226, 3-(benzoyloxy)-4-hydroxy-5-(butoxy)-2H-1-benzopyran-2-one], for which the inhibition in vivo at 10 mg/kg was 33%.

Turning to `CCCCOc1cccc2oc(=O)c(O)c(O)c12` [Compound 227, 3,4-(dihydroxy)-5-(butoxy)-2H-1-benzopyran-2-one], the inhibition in vivo at 10 mg/kg amounted to 50%.

For `CCCCCCCCCCOc1c(O)c2cccc(O)c2oc1=O` [Compound 97, 3-(decyloxy)-4,8-(dihydroxy)-2H-1-benzopyran-2-one], the inhibition in vivo at 10 mg/kg stood at 34%.

Turning to `CCCCCCCCCCOc1cccc2oc(=O)c(O)c(OCCCC)c12` [Compound 234, 3-hydroxy-4-(butoxy)-5-(decyloxy)-2H-1-benzopyran-2-one], the inhibition in vivo at 10 mg/kg was determined as 33%. For `COc1c(OC/C=C(\C)CCC=C(C)C)c(=O)oc2cccc(OC/C=C(\C)CCC=C(C)C)c12` [Compound 257, 3,5-(digeranyloxy)-4-(methoxy)-2H-1-benzopyran-2-one] the value was 31%; for `COc1cccc2c(O)c(O)c(=O)oc12` [Compound 111, 3,4-(dihydroxy)-8-(methoxy)-2H-1-benzopyran-2-one], 38%; for `CCCCCCCCCCOc1c(O)c(=O)oc2cccc(O)c12` [Compound 183, 3,5-(dihydroxy)-4-(decyloxy)-2H-1-benzopyran-2-one], 30%. `CC(C)Oc1ccc2c(OC(=O)c3ccccc3)c(OC(C)C)c(=O)oc2c1` [Compound 52, 3,7-(diisopropoxy)-4-(benzoyloxy)-2H-1-benzopyran-2-one]: the inhibition in vivo at 10 mg/kg was determined as 32%. In the case of `CCCCCCCCCCOc1c(OC(C)=O)c(=O)oc2cccc(OC(C)C)c12` [Compound 217, 3-(acetoxy)-4-(decyloxy)-5-(isopropoxy)-2H-1-benzopyran-2-one] it was 30%. For `CC(C)=CCC/C(C)=C/COc1c(O)c2ccc(O)cc2oc1=O` [Compound 19, 3-(geranyloxy)-4,7-(dihydroxy)-2H-1-benzopyran-2-one] the value was 42%; for `CC(=O)Oc1c(O)c(=O)oc2c(OC/C=C(\C)CCC=C(C)C)cccc12` [Compound 160, 3-hydroxy-4-(acetoxy)-8-(geranyloxy)-2H-1-benzopyran-2-one], 34%; for `COc1cccc2oc(=O)c(OC(C)=O)c(OC)c12` [Compound 201, 3-(acetoxy)-4,5-(dimethoxy)-2H-1-benzopyran-2-one], 31%. For `COc1ccc2c(OC/C=C(\C)CCC=C(C)C)c(OC(C)=O)c(=O)oc2c1` [Compound 40, 3-(acetoxy)-4-(geranyloxy)-7-(methoxy)-2H-1-benzopyran-2-one] the value was 34%. As for `COc1cccc2oc(=O)c(OC/C=C(\C)CCC=C(C)C)c(OC(C)C)c12` [Compound 207, 3-(geranyloxy)-4-(isopropoxy)-5-(methoxy)-2H-1-benzopyran-2-one], the inhibition in vivo at 10 mg/kg is 33%. For the molecule `CCCCCCCCCCOc1ccc2oc(=O)c(O)c(OC)c2c1` [Compound 277, 3-(hydroxy)-4-(methoxy)-6-(decyloxy)-2H-1-benzopyran-2-one], the inhibition in vivo at 10 mg/kg was 35%. For `CC(=O)Oc1c(OC(C)=O)c2c(OC(C)C)cccc2oc1=O` [Compound 213, 3,4-(diacetoxy)-5-(isopropoxy)-2H-1-benzopyran-2-one] the value was 33%. Consider `CCCCCCCCCCOc1cccc2oc(=O)c(O)c(O)c12` [Compound 230, 3,4-(dihydroxy)-5-(decyloxy)-2H-1-benzopyran-2-one], for which the inhibition in vivo at 10 mg/kg stood at 43%. For `CCCCCCCCCCOc1ccc2c(OC/C=C(\C)CCC=C(C)C)c(OC(C)C)c(=O)oc2c1` [Compound 72, 3-(isopropoxy)-4-(geranyloxy)-7-(decyloxy)-2H-1-benzopyran-2-one], the inhibition in vivo at 10 mg/kg worked out at 34%. For `CCCCCCCCCCOc1cccc2c(OC/C=C(\C)CCC=C(C)C)c(OC/C=C(\C)CCC=C(C)C)c(=O)oc12` [Compound 157, 3,4-(digeranyloxy)-8-(decyloxy)-2H-1-benzopyran-2-one] the value was 30%; for `CC(C)=CCC/C(C)=C/COc1c(O)c2c(OC(C)C)cccc2oc1=O` [Compound 219, 3-(geranyloxy)-4-hydroxy-5-(isopropoxy)-2H-1-benzopyran-2-one], 36%; for `CCCCCCCCCCOc1cccc2c(OC/C=C(\C)CCC=C(C)C)c(OC(C)C)c(=O)oc12` [Compound 156, 3-(isopropoxy)-4-(geranyloxy)-8-(decyloxy)-2H-1-benzopyran-2-one], 32%. In the case of `CCCCCCCCCCOc1ccc2c(O)c(OC)c(=O)oc2c1` [Compound 62, 3-(methoxy)-4-hydroxy-7-(decyloxy)-2H-1-benzopyran-2-one] it was 43%; in that of `CCCCCCCCCCOc1c(OC)c(=O)oc2cccc(OC(C)C)c12` [Compound 216, 3-(methoxy)-4-(decyloxy)-5-(isopropoxy)-2H-1-benzopyran-2-one], 34%; in that of `CCCCCCCCCCOc1c(O)c2ccc(OC(C)C)cc2oc1=O` [Compound 48, 3-(decyloxy)-4-hydroxy-7-(isopropoxy)-2H-1-benzopyran-2-one], 42%. Consider `COc1c(OC(C)C)c2c(OC)cccc2oc1=O` [Compound 200, 3,5-(dimethoxy)-4-(isopropoxy)-2H-1-benzopyran-2-one], for which the inhibition in vivo at 10 mg/kg was 30%. With `CC(C)Oc1cccc2oc(=O)c(OC(=O)c3ccccc3)c(O)c12` [Compound 210, 3-(benzoyloxy)-4-hydroxy-5-(isopropoxy)-2H-1-benzopyran-2-one], the inhibition in vivo at 10 mg/kg was found to be 40%. Turning to `CCCCCCCCCCOc1ccc2oc(=O)c(OC)c(O)c2c1` [Compound 275, 3-(methoxy)-4-(hydroxy)-6-(decyloxy)-2H-1-benzopyran-2-one], the inhibition in vivo at 10 mg/kg came to 36%. For the molecule `CC(C)=CCC/C(C)=C/COc1cccc2oc(=O)c(OC(=O)c3ccccc3)c(O)c12` [Compound 244, 3-(benzoyloxy)-4-hydroxy-5-(geranyloxy)-2H-1-benzopyran-2-one], the inhibition in vivo at 10 mg/kg worked out at 33%. For `CC(C)Oc1c(OC(=O)c2ccccc2)c2ccc(O)cc2oc1=O` [Compound 13, 3-(isopropoxy)-4-(benzoyloxy)-7-hydroxy-2H-1-benzopyran-2-one] the value was 32%; for `CC(C)=CCC/C(C)=C/COc1c(OC(C)C)c2cccc(OC(C)C)c2oc1=O` [Compound 140, 3-(geranyloxy)-4,8-(diisopropoxy)-2H-1-benzopyran-2-one], 30%. `CC(=O)Oc1c(OC(=O)c2ccccc2)c(=O)oc2cccc(OC/C=C(\C)CCC=C(C)C)c12` [Compound 247, 3-(benzoyloxy)-4-(acetoxy)-5-(geranyloxy)-2H-1-benzopyran-2-one]: the inhibition in vivo at 10 mg/kg is 34%. In the case of `CCCCCCCCCCOc1c(OC(=O)c2ccccc2)c2c(OC)cccc2oc1=O` [Compound 202, 3-(decyloxy)-4-(benzoyloxy)-5-(methoxy)-2H-1-benzopyran-2-one] it was 30%; in that of `CC(=O)Oc1cccc2oc(=O)c(OC(=O)c3ccccc3)c(OC(C)=O)c12` [Compound 181, 3-(benzoyloxy)-4,5-(diacetoxy)-2H-1-benzopyran-2-one], 33%. Take `CCCCCCCCCCOc1c(O)c(=O)oc2cccc(OC)c12` [Compound 199, 3-hydroxy-4-(decyloxy)-5-(methoxy)-2H-1-benzopyran-2-one]: the inhibition in vivo at 10 mg/kg came out at 32%.

As for `CC(C)=CCC/C(C)=C/COc1ccc2c(O)c(OC(=O)c3ccccc3)c(=O)oc2c1` [Compound 74, 3-(benzoyloxy)-4-hydroxy-7-(geranyloxy)-2H-1-benzopyran-2-one], the inhibition in vivo at 10 mg/kg is 34%.

For the origin of these results see patent publication US5428059A, “Benzopyran derivatives and an anti-allergic agent possessing the same as the active ingredient” (Dainippon Ink & Chemicals, Inc., priority 1991, dated 1995).
